Columns and labels:
[1] = target: T1, Human immunodeficiency virus type 1 reverse transcriptase (Human immunodeficiency virus 1, UniProt Q72547); test: Inhibition of HIV1 RT using 17-mer DNA/Alexa Fluor 488 5'-end labeled DNA/Alexa Fluor 555-aha-dUTP as primer/template/substrate preincubated for 10 mins followed substarte addition measured after 30 mins by FRET assay
[2] = test system: CCRF-CEM; test: (§1) Cytotoxicity against HIV1 infected human CEM cells assessed as reduction in cell viability after 7 days by MTT assay; format: cell-based; conditions: ccrf-cem, 168 h
[3] = test system: Vero; test: (§2) Cytotoxicity against HIV1 infected African green monkey Vero cells assessed as reduction in cell viability after 7 days by MTT assay; format: cell-based; conditions: chlorocebus sabaeus, vero, 168 h
[4] = test system: Human immunodeficiency virus 1; test: Antiviral activity against HIV-1 LAI infected in human PBM cells after 7 days; format: functional, organism-based; conditions: Human immunodeficiency virus 1, LAI, 168 h
[5] = test system: PBMC; test: (§3) Cytotoxicity against HIV1 infected human PBMC cells assessed as reduction in cell viability after 7 days by MTT assay; format: cell-based; conditions: pbmc, 168 h
[6] = Ratio of CC50 for human PBM cells to EC50 for HIV-1 LAI infected in human PBM cells
[7] = target: T1, Human immunodeficiency virus type 1 reverse transcriptase; test: Inhibition of HIV1 RT using A5'-end 32P-labeled 24-mer primer/a48-mer template preincubated for 5 mins followed by 10 uM nucleotides addition measured after 5 mins by gel-based primer extension assay
[8] = target: Human immunodeficiency virus type 1 reverse transcriptase (Human immunodeficiency virus 1, UniProt Q72547, K103N)
[9] = test system: Human immunodeficiency virus 1
[10] = target: T1, Human immunodeficiency virus type 1 reverse transcriptase; test: Inhibition of HIV1 RT using A5'-end 32P-labeled 24-mer primer/a48-mer template preincubated for 5 mins followed by 1 uM nucleotides addition measured after 10 mins by gel-based primer extension assay
[11] = test system: Human immunodeficiency virus 1; test: Ratio of IC50 for HIV1 RT K103N mutant to IC50 for wild type HIV1 RT
[12] = target: Human immunodeficiency virus type 1 reverse transcriptase (Human immunodeficiency virus 1, UniProt Q72547, E138K)
[13] = target: T1, Human immunodeficiency virus type 1 reverse transcriptase; test: Inhibition of HIV1 RT using A5'-end 32P-labeled 24-mer primer/a48-mer template preincubated for 5 mins followed by 25 uM nucleotides addition measured after 2 mins by gel-based primer extension assay
[14] = target: T1, Human immunodeficiency virus type 1 reverse transcriptase; test: Inhibition of HIV1 RT using A5'-end 32P-labeled 24-mer primer/a48-mer template preincubated for 5 mins followed by 0.5 uM nucleotides addition measured after 15 mins by gel-based primer extension assay
[15] = test system: Human immunodeficiency virus 1; test: Ratio of IC50 for HIV1 RT E138K mutant to IC50 for wild type HIV1 RT
[16] = target: Human immunodeficiency virus type 1 reverse transcriptase (Human immunodeficiency virus 1, UniProt Q72547, V108I)
[17] = as §1; format: cell-based, CCRF-CEM; conditions: HIV1 infected CEM (CCRF-CEM) cells
[18] = as §2; format: cell-based; conditions: chlorocebus sabaeus, HIV1 infected Vero cells
[19] = as §3; format: cell-based; conditions: HIV1 infected PBMC cells

Row | SMILES | IC50 [1] | CC50 [2] | CC50 [3] | EC50 [4] | CC50 [5] | Ratio CC50/EC50 [6] | further results
1 | CC(=O)c1cc2c(-c3ccc(N(C)C)cc3)c3c(nc2[nH]1)-c1ccccc1C3=O | 15 µM | 24 µM | 11 µM | 0.93 µM | > 100 µM | >100 | –
2 | CC1(C)CC(=O)c2c(nc3c(c(C#N)cn3Cc3ccccc3)c2-c2ccccc2)C1 | 0.73 µM | > 100 µM | > 100 µM | 0.35 µM | > 100 µM | >100 | IC50 [7]: 0.96 µM; IC50 [8]: 9.2 µM; Ratio IC50 [9]: 11; IC50 [10]: 8.9 µM; Ratio IC50 [11]: 28; IC50 [12]: 69 µM; IC50 [13]: 0.73 µM; IC50 [14]: 10 µM; Ratio IC50 [15]: 211; IC50 [16]: > 100 µM
3 | Cc1ccnc2c1NC(=O)c1cccnc1N2C1CC1 [NEVIRAPINE] | – | – | – | 0.04 µM | – | – | CC50 at 168 h [17]: > 100 µM; CC50 at 168 h [18]: > 100 µM; CC50 at 168 h [19]: > 100 µM
4 | CC(C)(C)n1cc(C#N)c2cc(C=O)cnc21 | 14 µM | > 100 µM | 8.1 µM | 0.49 µM | > 100 µM | >100 | –
5 | N#Cc1cn(Cc2ccccc2)c2ncc(Br)cc12 | > 100 µM | > 100 µM | > 100 µM | 0.47 µM | > 100 µM | >100 | –
6 | C=CCn1cc(C#N)c2cc(C#N)cnc21 | > 100 µM | > 100 µM | > 100 µM | 0.76 µM | > 100 µM | >100 | –
7 | CC1(C)CC(=O)c2cc3c(C#N)cn(Cc4ccccc4)c3nc2C1 | 12 µM | 3.7 µM | > 100 µM | 0.91 µM | > 100 µM | >100 | –
8 | Cc1ccc(-c2cnc3c(c2)c(C#N)cn3Cc2ccccc2)cc1 | > 100 µM | > 100 µM | 8.1 µM | 0.49 µM | > 100 µM | >100 | –
9 | CC1(C)CC(=O)c2c(nc3c(c(C#N)cn3Cc3ccccc3)c2-c2c(F)cccc2F)C1 | 0.36 µM | – | – | 0.46 µM | – | – | –
10 | CCCCn1cc(C#N)c2c(-c3ccc(C(F)(F)F)cc3F)c3c(nc21)-c1ccccc1C3=O | 0.58 µM | 48 µM | 6.8 µM | 0.83 µM | > 100 µM | >100 | IC50 [8]: 28 µM; Ratio IC50 [11]: 49; IC50 [12]: > 100 µM; IC50 [16]: > 100 µM
11 | CCCc1c2c(nc3c1c(C#N)cn3C1CCCCC1)CCC2=O | > 100 µM | > 100 µM | > 100 µM | 0.69 µM | > 100 µM | >100 | –
12 | CC1(C)CC(=O)c2c(nc3c(c(C#N)cn3Cc3ccccc3)c2-c2ccc([N+](=O)[O-])cc2)C1 | 1.4 µM | – | – | – | – | – | –
13 | Cc1cccc(C)c1-c1c2c(nc3c1c(C#N)cn3Cc1ccccc1)CC(C)(C)CC2=O | 26 µM | – | – | > 100 µM | – | – | –
14 | O=C1Nc2ccc(Cl)cc2[C@@](C#CC2CC2)(C(F)(F)F)O1 [EFAVIRENZ] | – | > 100 µM | > 100 µM | – | > 100 µM | – | –
15 | CC1(C)CC(=O)c2c(nc3c(c(C#N)cn3Cc3ccccc3)c2-c2cccc(Cl)c2)C1 | 58 µM | – | – | 1 µM | – | – | –
16 | CC(=O)c1c(C)nc2c(c(C#N)cn2Cc2ccccc2)c1-c1ccc([N+](=O)[O-])cc1 | 6.3 µM | > 100 µM | > 100 µM | 0.19 µM | > 100 µM | >100 | IC50 [8]: 15 µM; Ratio IC50 [9]: 12; Ratio IC50 [11]: 2.4; IC50 [12]: 59 µM; Ratio IC50 [15]: 9.4; IC50 [16]: > 100 µM
17 | CC1(C)CC(=O)c2c(nc3c(c(C#N)cn3Cc3ccccc3)c2-c2ccc(F)cc2)C1 | 2.9 µM | – | – | – | – | – | –
